Assay type in all cases: in vivo
Assay [1] deals with Beet Armyworm (Spodoptera exigua, LAPHEG). Briefly: Bioassays on Beet Armyworm (BAW), 128-well diet tray assay. The note with it: Spodoptera exigua. The gist of the method:
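Larvae at second instar are exposed on dried, compound-treated diet (50 μg/cm^2, delivered in 90:10 acetone-water) in eight replicate wells. After five to seven days at 25° C., 14:10 light-dark, percent mortality in each well is scored and the eight wells averaged.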

Assay [2] deals with Cabbage Looper (Trichoplusia ni, TRIPNI). Briefly: Bioassays on Cabbage Looper (CL), 128-well diet tray assay. The following applies: Trichoplusia ni. A digest of the protocol:
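Second-instar larvae (1–5 per well) placed on artificial diet surface-treated with 50 μg/cm^2 test molecule applied in 90:10 acetone-water and dried. Held at 25° C., 14:10 light-dark, for five to seven days. Percent mortality scored per well and averaged over eight wells.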

Assay [3] concerns Yellow Fever Mosquito (Aedes aegypti, AEDSAE). The following applies: for YFM rating: Table ABC / ABC-DP rating. A digest of the protocol: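 Mortality after 3 days at room temperature is the read-out, scored well by well and converted to a rating. Test molecules came from 4000 ppm stocks in DMSO, further diluted in 90:10 water/acetone, and were exposed to roughly 1-day-old larvae suspended in liver-powder water.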

Setting [4] is: Beet Armyworm, rating class, read-out: BAW.
[5] abbreviates: Cabbage Looper, rating class, read-out: CL.
Setting [6] is: Yellow Fever Mosquito, rating class.
Setting [7] is: Beet Armyworm, Table ABC / ABC-DP rating, read-out: BAW rating.
[8] abbreviates: Cabbage Looper, Table ABC / ABC-DP rating, read-out: CL rating.
[9] abbreviates: Table ABC: Biological Results, species BAW, read-out: BAW.
Where [10] appears, read: Table ABC: Biological Results, species CL, read-out: CL.
The mark [11] stands for this setting: Table ABC: Biological Results, species YFM.

Like-named read-outs stand apart in the source and are kept apart here.

With `Cc1c(N)ccc(Br)c1NC(=O)c1cc(NC(=O)[C@H]2[C@H](c3ccc(F)c(C(F)(F)F)c3)C2(Cl)Cl)ccc1Cl` [F1684, N-(3-Amino-6-bromo-2-methylphenyl)-2-chloro-5-((1R,3R)-2,2-dichloro-3-(4-fluoro-3-(trifluoromethyl)phenyl)cyclopropane-1-carboxamido)benzamide], the pest or weed control at 50 µg/cm2 in assay [1] (setting [4]) and in assay [2] (setting [5]) was 50 to 100% in each case. Besides, the YFM entry in assay [3] (setting [6]) is reported as “B (More than 0 – Less than 80)”.

Consider `CN(C(=O)c1cc(NC(=O)[C@H]2[C@H](c3ccc(Cl)c(Cl)c3)C2(Cl)Cl)ccc1Cl)c1ccc(F)c(NC(=O)COC(F)(F)F)c1F` [F1793, 2-Chloro-5-((1R,3R)-2,2-dichloro-3-(3,4-dichlorophenyl)cyclopropane-1-carboxamido)-N-(2,4-difluoro-3-(2-(trifluoromethoxy)acetamido)phenyl)-N-methylbenzamide], for which the pest or weed control at 50 µg/cm2 in assay [1] (setting [7]) and in assay [2] (setting [8]) was 50 to 100% throughout. Moreover, the YFM rating entry in assay [3] (Yellow Fever Mosquito) is given as “A (80–100)”.

`CCN(C(=O)COC(F)(F)F)c1c(F)ccc(NC(=O)c2cc(NC(=O)[C@H]3[C@H](c4ccc(F)c(C(F)(F)F)c4)C3(Cl)Cl)ccc2Cl)c1F` [F1789, 2-Chloro-5-((1R,3R)-2,2-dichloro-3-(4-fluoro-3-(trifluoromethyl)phenyl)cyclopropane-1-carboxamido)-N-(3-(N-ethyl-2-(trifluoromethoxy)acetamido)-2,4-difluorophenyl)benzamide]: the pest or weed control at 50 µg/cm2 in assay [1] (setting [7]) and in assay [2] (setting [8]) was 50 to 100% throughout. Besides, the YFM rating result in assay [3] (Yellow Fever Mosquito) is given as “A (80–100)”.

`O=C1CC(C(=O)Nc2c(F)ccc(NC(=O)c3cc(NC(=O)[C@H]4[C@H](c5ccc(F)c(C(F)(F)F)c5)C4(Cl)Cl)ccc3Cl)c2F)C1` [F1303, 2-Chloro-5-((1R,3R)-2,2-dichloro-3-(4-fluoro-3-(trifluoromethyl)phenyl)cyclopropane-1-carboxamido)-N-(2,4-difluoro-3-(3-oxocyclobutane-1-carboxamido)phenyl)benzamide]: the pest or weed control at 50 µg/cm2 in assay [1] (setting [9]) and in assay [2] (setting [10]) was 50 to 100% each time. The YFM entry in assay [3] (setting [11]) is given as “A (80–100)”.

On to `Nc1c(F)ccc(NC(=O)c2cc(NC(=O)[C@H]3[C@H](c4cc(Br)cc(C(F)(F)F)c4)C3(Cl)Cl)ccc2Cl)c1F` (relative stereo) [F1075, trans-N-(3-Amino-2,4-difluorophenyl)-5-(3-(3-bromo-5-(trifluoromethyl)phenyl)-2,2-dichlorocyclopropane-1-carboxamido)-2-chlorobenzamide], for which the pest or weed control at 50 µg/cm2 in assay [1] (setting [9]) and in assay [2] (setting [10]) was 50 to 100% in each case. Besides, the YFM result in assay [3] (setting [11]) was “A (80–100)”.

As to `CC(C)C(=O)Nc1c(F)ccc(NC(=O)c2cc(NC(=O)[C@H]3[C@H](c4ccc(Cl)c(Cl)c4)C3(Cl)Cl)ccc2Cl)c1F` [F1606, 2-Chloro-5-((1R,3R)-2,2-dichloro-3-(3,4-dichlorophenyl)cyclopropane-1-carboxamido)-N-(2,4-difluoro-3-isobutyramidophenyl)benzamide], the pest or weed control at 50 µg/cm2 in assay [1] (setting [4]) and in assay [2] (setting [5]) was 50 to 100% in each case. For the same compound, the YFM result in assay [3] (setting [6]) was “A (80–100)”.

As for `CN(C(=O)c1cc(NC(=O)[C@H]2[C@H](c3cc(Cl)cc(Cl)c3)C2(Cl)Cl)ccc1C#N)c1ccc(F)cc1F` (relative stereo) [F1039, trans-2-Cyano-5-(2,2-dichloro-3-(3,5-dichlorophenyl)cyclopropane-1-carboxamido)-N-(2,4-difluorophenyl)-N-methylbenzamide], the pest or weed control at 50 µg/cm2 in assay [1] (setting [9]) and in assay [2] (setting [10]) was 50 to 100% in each case. Also, in assay [3] (setting [11]), the YFM entry is listed as “A (80–100)”.

On to `CC(C)(Br)C(=O)Nc1c(F)ccc(NC(=O)c2cc(NC(=O)[C@H]3[C@H](c4ccc(F)c(C(F)(F)F)c4)C3(Cl)Cl)ccc2Cl)c1F` [F1354, N-(3-(2-Bromo-2-methylpropanamido)-2,4-difluorophenyl)-2-chloro-5-((1R,3R)-2,2-dichloro-3-(4-fluoro-3-(trifluoromethyl)phenyl)cyclopropane-1-carboxamido)benzamide], for which the pest or weed control at 50 µg/cm2 in assay [1] (setting [9]) and in assay [2] (setting [10]) was 50 to 100% each time. Further, the YFM result in assay [3] (setting [11]) was “A (80–100)”.

For `CN(NC(=O)c1cc(NC(=O)[C@H]2[C@H](c3ccc(F)c(Cl)c3)C2(Cl)Cl)ccc1Cl)c1ccccc1` [F2512, (1R,3R)-2,2-Dichloro-N-(4-chloro-3-(2-methyl-2-phenylhydrazine-1-carbonyl)phenyl)-3-(3-chloro-4-fluorophenyl)cyclopropane-1-carboxamide], the pest or weed control at 50 µg/cm2 in assay [1] (setting [7]) and in assay [2] (setting [8]) was 50 to 100% throughout. Moreover, the YFM rating entry in assay [3] (Yellow Fever Mosquito) is “A (80–100)”.

Turning to `O=C(CCC(F)(F)C(F)(F)F)Nc1c(F)ccc(NC(=O)c2cc(NC(=O)[C@H]3[C@H](c4ccc(F)c(C(F)(F)F)c4)C3(Cl)Cl)ccc2Cl)c1F` [F1844, 2-Chloro-5-((1R,3R)-2,2-dichloro-3-(4-fluoro-3-(trifluoromethyl)phenyl)cyclopropane-1-carboxamido)-N-(2,4-difluoro-3-(4,4,5,5,5-pentafluoropentanamido)phenyl)benzamide], the pest or weed control at 50 µg/cm2 in assay [1] (setting [7]) and in assay [2] (setting [8]) was 50 to 100% throughout. Besides, the YFM rating entry in assay [3] (Yellow Fever Mosquito) is given as “A (80–100)”.

Take `CC(=O)Nc1c(F)ccc(NC(=O)c2cc(NC(=O)[C@H]3[C@H](c4cc(C(F)(F)F)cc(C(F)(F)F)c4)C3(Cl)Cl)ccc2Cl)c1F` (relative stereo) [F1803, trans-N-(3-Acetamido-2,4-difluorophenyl)-5-(3-(3,5-bis(trifluoromethyl)phenyl)-2,2-dichlorocyclopropane-1-carboxamido)-2-chlorobenzamide]: the pest or weed control at 50 µg/cm2 in assay [1] (setting [7]) and in assay [2] (setting [8]) was 50 to 100% throughout. Also, the YFM rating result in assay [3] (Yellow Fever Mosquito) is given as “A (80–100)”.

As for `O=C(Nc1ccc(F)cc1F)c1cc(NC(=O)[C@H]2[C@H](c3cc(C(F)(F)F)cc(Cl)c3F)C2(Cl)Cl)ccc1Cl` (relative stereo) [F1050, trans-2-Chloro-5-(2,2-dichloro-3-(3-chloro-2-fluoro-5-(trifluoromethyl)phenyl)cyclopropane-1-carboxamido)-N-(2,4-difluorophenyl)benzamide], the pest or weed control at 50 µg/cm2 in assay [1] (setting [9]) and in assay [2] (setting [10]) was 50 to 100% each time. The YFM entry in assay [3] (setting [11]) is given as “A (80–100)”.

As for `O=C(Nc1ccc(F)c(NC(=O)C(Cl)CCl)c1F)c1cc(NC(=O)[C@H]2[C@H](c3ccc(F)c(C(F)(F)F)c3)C2(Cl)Cl)ccc1Cl` (stereo partly drawn) [F1728, 2-Chloro-5-((1R,3R)-2,2-dichloro-3-(4-fluoro-3-(trifluoromethyl)phenyl)cyclopropane-1-carboxamido)-N-(3-(2,3-dichloropropanamido)-2,4-difluorophenyl)benzamide], the pest or weed control at 50 µg/cm2 in assay [1] (setting [4]) and in assay [2] (setting [5]) was 50 to 100% in each case. Also, the YFM result in assay [3] (setting [6]) is “B (More than 0 – Less than 80)”.

As for `C=CCN(C(=O)C(F)F)c1c(F)ccc(NC(=O)c2cc(NC(=O)[C@H]3[C@H](c4ccc(F)c(C(F)(F)F)c4)C3(Cl)Cl)ccc2Cl)c1F` [F1482, N-(3-(N-Allyl-2,2-difluoroacetamido)-2,4-difluorophenyl)-2-chloro-5-((1R,3R)-2,2-dichloro-3-(4-fluoro-3-(trifluoromethyl)phenyl)cyclopropane-1-carboxamido)benzamide], the pest or weed control at 50 µg/cm2 in assay [1] (setting [4]) and in assay [2] (setting [5]) was 50 to 100% in each case. Also, the YFM result in assay [3] (setting [6]) was “A (80–100)”.

For `CN(NCCC(F)(F)F)C(=O)c1cc(NC(=O)[C@H]2[C@H](c3cc(Cl)cc(Cl)c3)C2(Cl)Cl)ccc1Cl` (relative stereo) [F2552, trans-2,2-Dichloro-N-(4-chloro-3-(1-methyl-2-(3,3,3-trifluoropropyl)hydrazine-1-carbonyl)phenyl)-3-(3,5-dichlorophenyl)cyclopropane-1-carboxamide], the pest or weed control at 50 µg/cm2 in assay [1] (setting [7]) and in assay [2] (setting [8]) was 50 to 100% in each case. For the same compound, in assay [3] (Yellow Fever Mosquito), the YFM rating result is on record as “A (80–100)”.

With `C=Cc1ccc(NC(=O)c2cc(NC(=O)[C@H]3[C@H](c4cc(Cl)cc(Cl)c4)C3(Cl)Cl)ccc2Cl)c(F)c1` (relative stereo) [F1313, trans-2-Chloro-5-(2,2-dichloro-3-(3,5-dichlorophenyl)cyclopropane-1-carboxamido)-N-(2-fluoro-4-vinylphenyl)benzamide], the pest or weed control at 50 µg/cm2 in assay [1] (setting [9]) and in assay [2] (setting [10]) was 50 to 100% throughout. The YFM result in assay [3] (setting [11]) is recorded as “A (80–100)”.

Take `C=Cc1c(F)ccc(NC(=O)c2cc(NC(=O)[C@H]3[C@H](c4cc(Cl)cc(Cl)c4)C3(Cl)Cl)ccc2Cl)c1F` (relative stereo) [F1314, trans-2-Chloro-5-(2,2-dichloro-3-(3,5-dichlorophenyl)cyclopropane-1-carboxamido)-N-(2,4-difluoro-3-vinylphenyl)benzamide]: the pest or weed control at 50 µg/cm2 in assay [1] (setting [9]) and in assay [2] (setting [10]) was 50 to 100% each time. In addition, in assay [3] (setting [11]), the YFM entry is “A (80–100)”.
